Tested on: SRS-A release
Assay: Inhibition of SRS-A release from sensitized guinea pig lung fragments challenged with ovalbumin (bioassay on guinea pig ileum)
Type: cell-based
Conditions: Cavia porcellus, read-out: Inhibition of SRS-A Release, Percent Inhibition; for inhibition at 10 µM: Drug Concentration 1 × 10^-5 M; for inhibition at 1 µM: Drug Concentration 1 × 10^-6 M; for inhibition at 30 µM: Drug Concentration 3 × 10^-5 M; for inhibition at 3 µM: Drug Concentration 3 × 10^-6 M
Description: Male, Hartley guinea pigs, usually 1-2 weeks old were sensitized with respect to ovalbumin by intraperitoneal administration of 0.15 ml. hyperimmune serum obtained from guinea pigs actively sensitized against ovalbumin. After 2 days or more, the animals were decapitated, lungs were excised and perfused through the pulmonary artery with Krebs' bicarbonate solution of the following composition in mmoles/liter: KCl, 4.6; CaCl2.2H2 O, 1.8; KH2 PO4, 1.2; MgSO4. 7H2 O, 1.2; NaCl, 118.2; NaHCO3, 24.8; and dextrose, 10.0.Poorly perfused and bloody areas were discarded. Normal lung was cut into 1 mm. cubes with a McIlwain tissue chopper, washed with Krebs' solution and divided into 400 mg. aliquots. The fragmented tissue was then incubated at 37° C. for 15 minutes in Krebs' solution containing indomethacin to optimize SRS-A release and an appropriate concentration of experimental drug. Antigen (ovalbumin) was then added to make a final concentration of 1×10^-5 g./ml. Fifteen minutes later, the incubation medium was decanted and centrifuged at 3,000×g at 4° C. for 5 minutes. The supernatant solution was collected and assayed for SRS-A using a computerized bioassay that employs the isolated guinea pig ileum (Fleisch et al., J. Pharmacol. Exp. Ther., 209, 238-243, (1979)). Release of SRS-A in the presence of an experimental drug was compared to a control sample and the results expressed as percent inhibition of SRS-A release.

Compound | inhibition at 10 µM [%] | inhibition at 1 µM [%] | inhibition at 30 µM [%] | inhibition at 3 µM [%] | inhibition at 0.3 µM (Drug Concentration 3 × 10^-7 M) [%]
O=C1C=C(Nc2cccc(F)c2)C(=O)c2nccnc21 [Example 7, 6-(3-fluoroanilino)-5,8-quinoxalinedione] | 67 | 22 | 81 | 48 | 6
O=C1C=C(Nc2ccccc2)C(=O)c2nccnc21 [Example 3, 6-anilino-5,8-quinoxalinedione] | – | 8 | 75 | 22 | –
O=C1C=C(Nc2ccccc2F)C(=O)c2nccnc21 [Example 5, 6-(2-fluoroanilino)-5,8-quinoxalinedione] | – | – | 83 | 12 | –
O=C1C=C(Nc2cccc(Cl)c2)C(=O)c2nccnc21 [Example 6, 6-(3-chloroanilino)-5,8-quinoxalinedione] | – | – | 71 | 28 | –
CN(C1=CC(=O)c2nccnc2C1=O)c1ccccc1 [Example 4, 6-(N-methylanilino)-5,8-quinoxalinedione] | 18 | 22 | 59 | – | –
Cc1nc2c(nc1C)C(=O)C(Nc1ccccc1)=CC2=O [Example 8, 6-anilino-2,3-dimethyl-5,8-quinoxalinedione] | – | 31 | – | 40 | –

— patent publication US4486432A, “Quinoxalinedione leukotriene release inhibitors” (Eli Lilly and Company, priority 1982, dated 1984)
